From US11964980B2, “Crystalline forms of (S)-1-(4-fluorophenyl)-1-(2-(4-(6-(1-methyl-1H-pyrazol-4-yl)pyrrolo[2,1- f][1,2,4]triazin-4-yl)piperazinyl)-pyrimidin-5-yl)ethan-1-amine and methods of making” (Blueprint Medicines Corporation, priority 2019, dated 2024)
Entries after “also recorded” stand apart in the source; their conditions may differ.

Experiments:
[1] = target: KIT D816V (Homo sapiens, UniProt P10721, D816V); experiment: Activity in vitro against KIT D816V
[2] = test system: PDGFRA D842V-mutant GIST; experiment: Phase 1 dose escalation and expansion study in advanced GIST: efficacy (mRECIST 1.1, central radiology); format: in vivo, human; settings: for OS (estimated): median follow up 15.9 months
Source text: Patients: Eligibility criteria for the phase 1 dose escalation and expansion study included provision of written informed consent, age ≥18 years, Eastern Cooperative Oncology Group performance status ≤2, and adequate end-organ function. The dose escalation part of the trial was open to patients with refractory solid tumors or unresectable GIST; however, only GIST patients were enrolled. Patients with unresectable GIST who had one or more measurable target lesion per modified Response Evaluation Criteria in Solid Tumors version 1.1 (mRECIST 1.1) were eligible for the dose expansion, which included three cohorts: patients with PDGFRA D842V-mutant GIST regardless of prior therapy; patients who progressed following imatinib and one or more other kinase inhibitors; and patients who received only imatinib.
Study Design: The primary endpoints of the phase 1, open-label dose escalation/expansion study were safety and tolerability of Compound (I) administered orally once daily and overall response rate (ORR) for each expansion cohort. Part 1 followed a 3+3 dose-escalation design, starting at 30 mg and continuing until the maximum tolerated dose (MTD) or the recommended phase 2 dose (RP2D) below the MTD was determined. Intrapatient dose escalation was permitted, and additional accrual was allowed to dose levels previously determined tolerable. The part 1 MTD was used to initiate the part 2 expansion. Treatment with Compound (I) was continued until precluded by toxicity, noncompliance, withdrawal of consent, physician decision, progressive disease, death, or closure of the study.
Safety and Response Assessments: Adverse events were evaluated at each visit from the start of study drug administration up to 30 days after the final dose of Compound (I) and were graded according to the National Cancer Institute Common Terminology Criteria for Adverse Events (NCI CTCAE) version 4.03. All patients underwent tumor imaging for response assessment via computed tomography (CT) or magnetic resonance imaging (MRI) at screening, every two cycles through and including cycle 13, then every three months until progression or discontinuation. Target and non-target lesions were identified and assessed per mRECIST 1.1 for GIST by independent, blinded, central radiographic review (BioTelemetry, Inc., Rockville, MD, USA).
Statistical Methods: The MTD, defined as the highest dose level with ≤1 cycle 1 dose limiting toxicity in six patients, was determined from all part 1 patients who completed cycle 1 and received at least 75% of their prescribed doses or experienced a dose limiting toxicity (DLT) (dose-determining population). The efficacy population included patients who received at least one dose of Compound (I) enrolled in part 1 or part 2 with PDGFRα D842V-mutant GIST who had one or more target lesions and at least one post-baseline disease assessment by central radiology. For the primary endpoint of partial or complete response, a sample size of 31 patients allowed testing the null hypothesis of overall response rate ≤10% versus the alternative hypothesis of objective response rate ≥35% with 90% power, assuming a 2-sided type I error rate of 0.05. Kaplan-Meier methods were used to estimate duration of response, PFS and OS, including the median with 95% confidence intervals. Estimated duration of response, PFS, and OS rates at 3-, 6-, and 12-months were also calculated.

[3] = test system: mast cell burden (serum tryptase, bone marrow mast cells, KIT D816V allele burden); experiment: Phase 2 PIONEER trial Part 1: measures of mast cell burden; format: in vivo, human
Description: This is a Phase 2, randomized, double-blind, placebo-controlled study comparing the efficacy and safety of Compound (I)+best supportive care (BSC) with placebo+BSC in patients with ISM and SSM whose symptoms are not adequately controlled by BSC. The study is conducted in three parts. In Part 1, the optimal dose Compound (I) (recommended phase 2 dose (RP2D)) was identified in patients with ISM. In Part 2, patients with ISM and SSM are randomly assigned to the RP2D of Compound (I) identified in Part 1+BSC, or to matching placebo+BSC. In Part 3, patients who have completed treatment in Part 1 or Part 2 of the study participate in a long-term extension, receiving Compound (I) at the RP2D+BSC.
Once BSC was optimized (between Day −98 and Day −71) and doses were stable for ≥14 days, ISM-SAF data was collected for an additional 14 days to determine eligibility based on symptom severity i.e., to identify ISM and SSM patients having moderate-to-severe symptoms. Patients not meeting the symptom severity threshold were deemed screen failures and were not eligible for study participation. Patients having moderate-to-severe symptoms and meeting the threshold for symptom severity began other screening procedures, including the following: Bone marrow (BM) biopsy (an archival sample obtained within the preceding 24 weeks or a fresh sample) and skin biopsy of lesional and nonlesional skin (in patients with cutaneous mastocytosis (CM)) were performed for confirmation of SM diagnosis and quantification of mast cells (MCs); patients with CM (maculopapular) had skin photographs taken. […]
Compound (I) was administered orally, once a day in continuous 28-day cycles. Patients were assessed weekly for the first 4 weeks, then every 4 weeks (until the RP2D was determined) for safety, laboratory monitoring, and quality of life (QoL) assessments. […] After completion of 12 weeks of treatment, BM and skin biopsy were repeated for MC quantification and skin photographs were taken in patients with baseline CM. […]

Sequence of KIT D816V (P10721 26-976 D816V): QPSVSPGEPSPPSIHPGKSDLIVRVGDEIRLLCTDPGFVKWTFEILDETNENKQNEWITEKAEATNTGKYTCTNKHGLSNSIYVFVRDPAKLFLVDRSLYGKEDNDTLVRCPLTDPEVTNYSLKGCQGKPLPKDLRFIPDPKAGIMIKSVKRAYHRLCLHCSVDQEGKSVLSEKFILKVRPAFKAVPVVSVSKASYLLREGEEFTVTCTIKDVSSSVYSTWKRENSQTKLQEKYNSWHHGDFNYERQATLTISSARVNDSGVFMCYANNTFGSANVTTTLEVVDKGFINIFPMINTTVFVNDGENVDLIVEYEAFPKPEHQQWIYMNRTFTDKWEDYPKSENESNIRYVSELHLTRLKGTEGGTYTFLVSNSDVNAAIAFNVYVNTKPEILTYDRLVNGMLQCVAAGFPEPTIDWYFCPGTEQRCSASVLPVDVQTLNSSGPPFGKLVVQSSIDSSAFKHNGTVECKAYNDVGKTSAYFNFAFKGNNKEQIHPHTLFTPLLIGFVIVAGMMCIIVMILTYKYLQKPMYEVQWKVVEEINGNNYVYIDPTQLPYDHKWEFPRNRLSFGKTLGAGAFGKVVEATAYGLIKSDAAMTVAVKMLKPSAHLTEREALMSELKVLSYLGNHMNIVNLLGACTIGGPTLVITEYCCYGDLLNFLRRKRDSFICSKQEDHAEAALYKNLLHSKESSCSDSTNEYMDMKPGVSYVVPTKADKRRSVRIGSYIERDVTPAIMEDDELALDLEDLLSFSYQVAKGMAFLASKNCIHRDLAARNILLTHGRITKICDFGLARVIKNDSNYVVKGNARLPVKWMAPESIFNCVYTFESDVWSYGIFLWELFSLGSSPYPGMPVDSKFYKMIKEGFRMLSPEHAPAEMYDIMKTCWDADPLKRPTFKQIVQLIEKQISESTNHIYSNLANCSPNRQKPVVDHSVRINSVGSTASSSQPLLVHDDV

## Cn1cc(-c2cc3c(N4CCN(c5ncc([C@@](C)(N)c6ccc(F)cc6)cn5)CC4)ncnn3c2)cn1 [Compound (I), (S)-1-(4-fluorophenyl)-1-(2-(4-(6-(1-methyl-1H-pyrazol-4-yl)pyrrolo[2,1-f][1,2,4]triazin-4-yl)piperazin-1-yl)pyrimidin-5-yl)ethan-1-amine]
[1]
  Activity in vitro against KIT D816V: potent and selective activity
[2]; 300 mg (n = 28)
  CBR (CR + PR + SD): (96.4) %
  CBR (CR + PR + SD), number of patients: 27 n
  CR: (3.6) %
  CR, number of patients: 1 n
  ORR (CR + PR), number of patients: 26 n
  PD, number of patients: 0 n
  PR: (89.2) %
  PR, number of patients: 25 n
[2]; 3-month
  Progression free survival rate: 100%
[2]; 6-month
  Progression free survival rate: 94%
[2]; 6 months
  OS (estimated): 100%
[2]; 12-month
  Progression free survival rate: 90%
[2]; 12 months
  OS (estimated): 91%
[2]; 24 months
  OS (estimated): 81%
[2]; All Doses (n = 56)
  CBR (CR + PR + SD), number of patients: 53 n
  CR, number of patients: 5 n
  ORR (CR + PR), number of patients: 49 n
  PD, number of patients: 0 n
  PR, number of patients: 44 n
[2]; all dose levels
  Median PFS: not reached
  Median duration of response: not reached
[2]; all dose levels, Kaplan-Meier
  12-month duration of response: 70%
[3]; 25 mg QD, similar to 50 mg and 100 mg QD
  Blood KIT D816V allele fraction: significant reduction
[3]; 25 mg once daily, ISM patients, vs placebo, FIG. 13
  Serum tryptase, mast cell burden and KIT D816V allele burden: significant reductions; also recorded: robust reductions; also recorded: robust declines
[3]; all dose cohorts (25, 50, 100 mg once daily), ISM patients, FIG. 12
  KIT D816V allele burden: significant decreases
